Results taken from patent US20250170115A1, “LENALIDOMIDE ORAL SOLUTION” (A FINE HOUSE S.A., priority 2021, published 2025).

Assay: Precipitation after preparation of lenalidomide compositions without glycol or polyol
Assay type: physicochemical
Settings: lenalidomide dissolved in an aqueous buffer at pH between 1.0 and 3.5; a few minutes
Method: A composition was prepared according to example 23 of WO 1998/03502. The solution contained 5.0 g lenalidomide, 22.5 g sodium chloride, 300.0 g phosphate buffer with pH 7.4 and demineralized water. The pH of the final composition was 7.4.
Similar results (i.e. precipitation) were obtained a few minutes after lenalidomide was dissolved in an aqueous buffer at pH between 1.0 and 3.5.
Likewise, attempts to prepare an oral solution by combining lenalidomide with any one of arginine, leucine, povidone K25, sodium lauryl sulfate, hydroxypropyl methylcellulose, poloxamer 20, in an aqueous buffer at pH 2.0 or pH 2.5 led to the formation of precipitate within minutes of the preparation of the compositions.

precipitation after dissolution: precipitation
Structure (SMILES): Nc1cccc2c1CN(C1CCC(=O)NC1=O)C2=O (racemic) [Lenalidomide, 1-oxo-(2,6-dioxopiperidin-3-yl)-4-aminoisoindoline]
